Experimental findings from ChEMBL document CHEMBL1125854, “Synthesis of substituted 5-amino-8-phenyl-3H,6H-1,4,5a,8a-tetraazaacenaphthalen-3-ones, a new class of agents for the improvement of cognition” (1991) are described below.

Holding throughout (format): functional
Experiment [1] deals with Mus musculus. Briefly: Tested for hypoxic survival test by 100 mg/kg intraperitoneal administration and percent survival of mice was reported. To be noted: ip.
Experiment [2] concerns Mus musculus. Briefly: Attenuation of anoxic-induced amnesia in mice treated with 100 mg/kg compound administered intraperitoneally was determined; 153-209. To be noted: route intraperitoneal.
The test system of experiment [3] is Mus musculus. Nature of the experiment: (§1) Attenuation of anoxic-induced amnesia in mice treated with 100 mg/kg compound administered intraperitoneally was determined. To be noted: route intraperitoneal.
For experiment [4], the system named is Mus musculus. The experiment is described as §1. To be noted: route intraperitoneal. This is another data set of the same source.
In experiment [5] the test system is Mus musculus. Nature of the experiment: Survival of mice after intraperitoneal administration of 50 mg/kg compound by using hypoxic survival test was determined. To be noted: ip.
The test system of experiment [6] is Mus musculus. Briefly: Survival of mice after intraperitoneal administration of 100 mg/kg compound by using hypoxic survival test was determined. To be noted: ip.
For experiment [7], the system named is Mus musculus. Briefly: Attenuation of anoxic-induced amnesia in mice treated with 10 mg/kg compound administered intraperitoneally was determined. To be noted: route intraperitoneal.
Experiment [8] concerns Mus musculus. Briefly: Attenuation of anoxic-induced amnesia in mice treated with 25 mg/kg compound administered intraperitoneally was determined. To be noted: route intraperitoneal.
For experiment [9], the system named is Mus musculus. Briefly: Attenuation of anoxic-induced amnesia in mice treated with 0.1 mg/kg compound administered intraperitoneally was determined. To be noted: route intraperitoneal.
The test system of experiment [10] is Mus musculus. Briefly: Tested for hypoxic survival test by 0.125 mg/kg intraperitoneal administration and percent survival of mice was reported; Value ranges from 60-80. To be noted: ip.

Molecules are shown by their SMILES. “And” between values parts separate entries of the source, which are not always exact repeats. Identical values can stand only once.

In turn, `CCNc1nc(=O)c2cnn3c2n1CC=C3c1ccccc1` came in with a survival at 100 mg/kg in the experiment on Mus musculus [1] of 73%. The compound `CC(C)Nc1nc(=O)c2cnn3c2n1CC=C3c1ccccc1` registered a survival at 100 mg/kg in the experiment on Mus musculus [1] of 20%.

For the compound `CC(C)CNc1nc(=O)c2cnn3c2n1CC=C3c1cccc(C(F)(F)F)c1`, the Improvement in the experiment with Mus musculus [2] is on record as 209%. For the same compound, the values for the Latency in the experiment on Mus musculus [3] and in the experiment on Mus musculus [4] were 218 s and 51 s, respectively. For the same compound, the survival at 50 mg/kg in the experiment on Mus musculus [5] stood at 50%. `CCCCNc1nc(=O)c2cnn3c2n1CC=C3c1cccc(C(F)(F)F)c1`: the survival at 100 mg/kg in the experiment with Mus musculus [6] came out at 58%. In the experiment with Mus musculus [1], `CC(C)CNc1nc(=O)c2cnn3c2n1CC=C3c1ccccc1` registered a survival at 100 mg/kg of 30%. In the experiment with Mus musculus [6], `CC(C)Nc1nc(=O)c2cnn3c2n1CC=C3c1cccc(C(F)(F)F)c1` registered a survival at 100 mg/kg of 15%. In turn, `CNc1nc(=O)c2cnn3c2n1CC=C3c1ccccc1` gave a survival at 100 mg/kg in the experiment on Mus musculus [1] of 95%. On to `CCNc1nc(=O)c2cnn3c2n1CC=C3c1cccc(C(F)(F)F)c1`, for which, in the experiment with Mus musculus [6], the survival at 100 mg/kg is 65%.

As to `Nc1nc(=O)c2cnn3c2n1CC=C3c1cccc(C(F)(F)F)c1`, the Latency with Mus musculus [7] is 102 s. Also, in the experiment with Mus musculus [4], the Improvement amounted to 20% and the Latency is on record as 180 s. The survival at 100 mg/kg with Mus musculus [1] was 68%. As for `CCCCNc1nc(=O)c2cnn3c2n1CC=C3c1ccccc1`, in the experiment with Mus musculus [8], the Improvement came to 67%; the Latency was 127 s and 132 s. In the experiment with Mus musculus [1], this compound gave a survival at 100 mg/kg of 70%. `CNC(=O)Oc1ccc2c(c1)[C@]1(C)CCN(C)[C@@H]1N2C` [PHYSOSTIGMINE] displayed an Improvement in the experiment on Mus musculus [9] of 36%. In the experiment with Mus musculus [10], this compound yielded a survival at 0.125 mg/kg of 60%.
